Results taken from patent US6506407B2, “Colon-specific drug release system” (Yamanouchi Pharmaceutical Co., Ltd., priority 1994, dated 2003).

What was measured:
[1] = pH in the cecum with time after oral lactulose aqueous solution (Test Example 3); format: in vivo, SD male rats; settings: for pH in the cecum: oral 100 mg/rat
Procedure: SD male rats deprived of food overnight were orally given a lactulose aqueous solution (100 mg/rat), and the pH in the cecum was measured with time.

[2] = test system: contents of the cecum (enterobacteria); test: pH change of dispersion of rat cecal contents in PBS (C-PBS) with lactulose, shaken at 37° C. under anaerobic condition (Test Example 2); parameters: species or system SD male rat
Procedure: A 1/15 M phosphate buffer solution (NaH2PO4-Na2HPO4; pH 7.3; hereinafter referred to as PBS) was made isotonic by addition of sodium chloride and adjusted to pH 6.8 by CO2 bubbling. The contents of the cecum of an SD male rat was dispersed therein to prepare a 10 w/v % dispersion of the cecal contents in PBS (hereinafter referred to as C-PBS). To 10 ml of C-PBS was added 100 mg of lactulose, and the mixture was shaken (50 strokes/min) at 37° C. under an anaerobic condition, and the pH change was measured. As a control, the same test was conducted on no lactulose-administered C-PBS. The same test was carried out on a mixture of 30 w/v % C-PBS and lactulose. As shown in the table, the pH of the cecal contents rapidly decreases by the addition of lactulose.

enterobacteria = test: generation of organic acid by the action of enterobacteria
[3] = test system: contents of the cecum of a rat (enterobacteria); test: pH of 10 w/v % cecal contents dispersion (CPBS) with saccharide (Test Example 7); settings: 200 mg saccharide in 20 ml 10 w/v % CPBS, 37° C.
Procedure: An isotonic phosphate buffer solution (pH: 7.3; PBS) was adjusted to pH 6.8 by CO2 bubbling. The contents of the cecum of a rat deprived of food for 24 hours was dispersed, therein to prepare a 10 w/v % dispersion of the cecal contents in PBS (CPBS). To 20 ml of CPBS was added 200 mg of a saccharide, and the mixture was shaken in a water bath at 37° C., and the pH of the CPBS was measured with time.

[4] = water solubility of saccharides and sugar alcohols
[5] = phosphorus concentration in plasma after salmon calcitonin; format: in vivo; settings: beagle dogs in fasted condition, s.c., 50 IU/animal, versus untreated control
Procedure: The following solution was subcutaneously administered to beagle dogs in fasted condition. Blood was taken with time to determine the phosphorus concentration in plasma using Inorganic Phosphorus E-HA Test Wako (Wako Pure Chemical Industries, Ltd.).
1% Gelatin solution containing 50 IU/0.2 ml of salmon calcitonin (pH 3; 0.2 ml; 50 IU/animal)
A single tablet of the preparation obtained in Examples 21, 22 or 24 or two tablets of the preparation obtained in Example 23 was administered orally to beagle dogs together with 30 ml of water, and blood was taken with time to determine the phosphorus concentration in plasma.
A single tablet of the preparation obtained in Examples 25, 26 or 28 or two tablets of the preparation obtained in Example 27 was administered orally to beagle dogs together with 30 ml of water, and blood was taken with time to determine the phosphorus concentration in plasma.

Compound: OC[C@H]1O[C@@H](O[C@@H]2[C@@H](CO)OC(O)(CO)[C@H]2O)[C@H](O)[C@@H](O)[C@H]1O (mixture of isomers) [lactulose]
- duration of pH reduction in the cecum ([1]; 100 mg/animal): 8 hours
- pH in the cecum reduced to ([1]; 100 mg/animal, in 3 to 4 hours from the administration): about 5.5
- pH in the cecum ([1]; 1 hr): 8.2
- pH in the cecum ([1]; 2 hr): 6.8
- pH in the cecum ([1]; 3 hr): 6.2
- pH in the cecum ([1]; 4 hr): 5.5
- pH in the cecum ([1]; 5 hr): 5.6
- pH in the cecum ([1]; 6 hr): 5.8
- pH in the cecum ([1]; 7 hr): 5.3
- pH in the cecum ([1]; rats deprived of food overnight, 0 hr): 7.6
- pH of C-PBS ([2]; 10 w/v % C-PBS 10 ml, lactulose 100 mg, 0 hr): 6.42
- pH of C-PBS ([2]; 10 w/v % C-PBS 10 ml, lactulose 100 mg, 2 hr): 5.93
- pH of C-PBS ([2]; 10 w/v % C-PBS 10 ml, lactulose 100 mg, 4 hr): 5.64
- pH of C-PBS ([2]; 10 w/v % C-PBS 10 ml, lactulose 100 mg, 6 hr): 5.41
- pH of C-PBS ([2]; 10 w/v % C-PBS 10 ml, lactulose 100 mg, 8 hr): 5.27
- pH of C-PBS ([2]; 10 w/v % C-PBS 10 ml, lactulose 100 mg, 24 hr): 4.76
- pH of C-PBS ([2]; 30 w/v % C-PBS and lactulose, 0 hr): 6.42
- pH of C-PBS ([2]; 30 w/v % C-PBS and lactulose, 2 hr): 5.39
- pH of C-PBS ([2]; 30 w/v % C-PBS and lactulose, 4 hr): 5.25
- pH of C-PBS ([2]; 30 w/v % C-PBS and lactulose, 6 hr): 5.15
- pH of C-PBS ([2]; 30 w/v % C-PBS and lactulose, 8 hr): 5.08
- rapid generation of an organic acid by enterobacteria (enterobacteria): degraded rapidly to generate an organic acid

Compound: O=C(CO)[C@@H](O)[C@H](O)[C@H](O)CO [fructose]
- degradation by enterobacteria with organic acid generation (pH of CPBS with time) [3]: degraded by enterobacteria to generate an organic acid similarly to lactulose
- water solubility [4]: high
- rapid generation of an organic acid by enterobacteria (enterobacteria): generate an organic acid rapidly

Compound: O=C[C@H](O)[C@@H](O)[C@@H](O)[C@H](O)CO [galactose]
- degradation by enterobacteria with organic acid generation (pH of CPBS with time) [3]: degraded by enterobacteria to generate an organic acid similarly to lactulose
- water solubility [4]: high
- rapid generation of an organic acid by enterobacteria (enterobacteria): generate an organic acid rapidly

Compound: OC[C@H]1O[C@@H](O[C@H]2[C@H](O)[C@@H](O)C(O)O[C@@H]2CO)[C@H](O)[C@@H](O)[C@H]1O (stereo partly drawn) [lactose]
- rapid generation of an organic acid by enterobacteria (enterobacteria): no rapid generation of an organic acid

Compound: Cc1occc(=O)c1O [maltol]
- water solubility [4]: low
- rapid generation of an organic acid by enterobacteria (enterobacteria): rapid generation of an organic acid was not observed

Compound: OC[C@H]1O[C@H](O[C@H]2[C@H](O)[C@@H](O)[C@H](O)O[C@@H]2CO)[C@H](O)[C@@H](O)[C@@H]1O [maltose]
- degradation by enterobacteria with organic acid generation (pH of CPBS with time) [3]: degraded by enterobacteria to generate an organic acid similarly to lactulose
- rapid generation of an organic acid by enterobacteria (enterobacteria): generate an organic acid rapidly

Compound: OC[C@@H](O)[C@@H](O)[C@H](O)[C@H](O)CO [mannitol]
- water solubility [4]: medium
- rapid generation of an organic acid by enterobacteria (enterobacteria): rapid generation of an organic acid was not observed

Compound: O=C[C@H](O)[C@H](O)[C@H](O)CO [ribose]
- water solubility [4]: low
- rapid generation of an organic acid by enterobacteria (enterobacteria): no rapid generation of an organic acid

Compound: OC[C@@H](O)[C@@H](O)[C@H](O)[C@@H](O)CO [sorbitol]
- water solubility [4]: high
- rapid generation of an organic acid by enterobacteria (enterobacteria): rapid generation of an organic acid was not observed

Compound: OC[C@H]1O[C@@](CO)(O[C@H]2O[C@H](CO)[C@@H](O)[C@H](O)[C@H]2O)[C@@H](O)[C@@H]1O [sucrose]
- degradation by enterobacteria with organic acid generation (pH of CPBS with time) [3]: degraded by enterobacteria to generate an organic acid similarly to lactulose
- water solubility [4]: high
- rapid generation of an organic acid by enterobacteria (enterobacteria): generate an organic acid rapidly

Compound: OC[C@@H](O)[C@H](O)[C@@H](O)CO [xylitol]
- water solubility [4]: high
- rapid generation of an organic acid by enterobacteria (enterobacteria): rapid generation of an organic acid was not observed

Compound: O=C[C@H](O)[C@@H](O)[C@H](O)CO [xylose]
- water solubility [4]: high
- rapid generation of an organic acid by enterobacteria (enterobacteria): generate an organic acid rapidly

Compound: fructooligosaccharide
- degradation by enterobacteria with organic acid generation (pH of CPBS with time) [3]: degraded by enterobacteria to generate an organic acid similarly to lactulose

Compound: salmon calcitonin
- phosphorus level in plasma after subcutaneous administration [5]: suppressed immediately after the administration
